From US20230302150A1, “ANTIBODY-TLR AGONIST CONJUGATES, METHODS AND USES THEREOF” (Ambrx, Inc., priority 2020, published 2023)

Molecular target: T1, hTLR7 (Homo sapiens, UniProt Q9NYK1)
T1 construct: expressed in transfected cells; host or cells: HEK-Blue hTLR7 reporter cell line
T1 sequence (Q9NYK1 27-1049): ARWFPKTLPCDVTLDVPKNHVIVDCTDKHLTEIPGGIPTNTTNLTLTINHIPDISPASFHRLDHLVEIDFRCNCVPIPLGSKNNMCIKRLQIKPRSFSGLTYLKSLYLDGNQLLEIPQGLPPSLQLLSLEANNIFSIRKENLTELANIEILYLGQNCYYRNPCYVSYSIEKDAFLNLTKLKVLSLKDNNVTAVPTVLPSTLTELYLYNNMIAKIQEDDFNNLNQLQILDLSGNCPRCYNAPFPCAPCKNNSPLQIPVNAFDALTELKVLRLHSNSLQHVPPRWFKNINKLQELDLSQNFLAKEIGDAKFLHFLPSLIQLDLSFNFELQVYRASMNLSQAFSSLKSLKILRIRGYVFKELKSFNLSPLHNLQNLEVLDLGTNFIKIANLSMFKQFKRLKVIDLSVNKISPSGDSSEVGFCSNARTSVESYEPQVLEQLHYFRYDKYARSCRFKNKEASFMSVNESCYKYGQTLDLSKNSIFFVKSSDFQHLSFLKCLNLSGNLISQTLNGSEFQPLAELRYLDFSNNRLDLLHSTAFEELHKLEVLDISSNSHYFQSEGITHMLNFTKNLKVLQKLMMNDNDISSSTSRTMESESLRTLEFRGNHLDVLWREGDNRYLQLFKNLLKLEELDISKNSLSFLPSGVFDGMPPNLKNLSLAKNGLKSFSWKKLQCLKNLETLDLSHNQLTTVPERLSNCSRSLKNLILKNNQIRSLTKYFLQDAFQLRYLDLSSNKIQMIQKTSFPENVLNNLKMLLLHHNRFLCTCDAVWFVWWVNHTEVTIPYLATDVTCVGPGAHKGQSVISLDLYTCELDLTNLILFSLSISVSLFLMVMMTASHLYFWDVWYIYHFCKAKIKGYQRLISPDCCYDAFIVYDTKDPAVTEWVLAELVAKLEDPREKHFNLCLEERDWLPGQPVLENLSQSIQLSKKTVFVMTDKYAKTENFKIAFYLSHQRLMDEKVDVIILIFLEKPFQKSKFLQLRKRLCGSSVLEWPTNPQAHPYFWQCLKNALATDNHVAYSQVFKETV
Assay: HEK-Blue hTLR7 reporter assay (NF-kB-induced SEAP, Quanti-Blue)
Format: cell-based
Details: Table 19, TLR7, drug-linkers with PEG shielding; read-out: EC50
Method: HEK-Blue™ hTLR7 cells were incubated in HEK-Blue™ Detection medium and stimulated with increasing concentrations of TLR7 or TLR8 or TLR7/8 agonists. […] The EC50 was determined from dose-response curve using Prism Software.

SMILES | EC50
CCCCOc1nc(N)c2[nH]c(=O)n(Cc3ccc(CN4CCC(CCNC(=O)[C@@H](N)Cn5cc(CON)nn5)CC4)cc3)c2n1 [AXC-932, (S)-2-amino-N-(2-(1-(4-((6-amino-2-butoxy-8-oxo-7,8-dihydro-9H-purin-9-yl)methyl)benzyl)piperidin-4-yl)ethyl)-3-(4-((aminooxy)methyl)-1H-1,2,3-triazol-1-yl)propanamide] | 156 nM
CCCCOc1nc(N)c2[nH]c(=O)n(Cc3ccc(CN4CCC(CCNC(=O)[C@@H](N)CO)CC4)cc3)c2n1 [AXC-933, (S)-2-amino-N-(2-(1-(4-((6-amino-2-butoxy-8-oxo-7,8-dihydro-9H-purin-9-yl)methyl)benzyl)piperidin-4-yl)ethyl)-3-hydroxypropanamide] | 40 nM
CCCCOc1nc(N)c2[nH]c(=O)n(Cc3ccc(CN4CCC(CCNC(=O)[C@@H](N)Cc5ccc(O)cc5)CC4)cc3)c2n1 [AXC-934, (S)-2-amino-N-(2-(1-(4-((6-amino-2-butoxy-8-oxo-7,8-dihydro-9H-purin-9-yl)methyl)benzyl)piperidin-4-yl)ethyl)-3-(4-hydroxyphenyl)propanamide] | 10.3 nM
CCCCOc1nc(N)c2[nH]c(=O)n(Cc3ccc(CN4CCC(CCNC(=O)[C@@H](N)CCCCn5cc(CON)nn5)CC4)cc3)c2n1 [AXC-935, (S)-2-amino-N-(2-(1-(4-((6-amino-2-butoxy-8-oxo-7,8-dihydro-9H-purin-9-yl)methyl)benzyl)piperidin-4-yl)ethyl)-6-(4-((aminooxy)methyl)-1H-1,2,3-triazol-1-yl)hexanamide] | 40 nM
CCCCOc1nc(N)c2[nH]c(=O)n(Cc3ccc(CN4CCC(CCNC(=O)[C@H](CCCCNC(=O)CON)NC(=O)CCCC(=O)NCCOCCOCCOCCOCCOCCOCCOCCOCCOCCOCCOCCOCCOCCOCCOCCOCCOCCOCCOCCOCCOCCOCCOCCOCCOCCOCCOCCOCCOCCOCCOCCOCCOCCOCCOCCOCCOCCOCCOCCOCCOCCOCCOCCOCCOCCOCCOCCOC)CC4)cc3)c2n1 [AXC-936, (S)-N1-(1-((2-(1-(4-((6-amino-2-butoxy-8-oxo-7,8-dihydro-9H-purin-9-yl)methyl)benzyl)piperidin-4-yl)ethyl)amino)-6-(2-(aminooxy)acetamido)-1-oxohexan-2-yl)-N5-(PEG48)-glutaramide] | 764 nM
CCCCOc1nc(N)c2[nH]c(=O)n(Cc3ccc(CN4CCC(CCNC(=O)[C@H](CCCCNC(=O)CON)NC(=O)CCOCCOCCOCCOCCOCCOCCOCCOC)CC4)cc3)c2n1 [AXC-937, (S)-2-PEG8-N-(2-(1-(4-((6-amino-2-butoxy-8-oxo-7,8-dihydro-9H-purin-9-yl)methyl)benzyl)piperidin-4-yl)ethyl)-6-(2-(aminooxy)acetamido)hexanamide] | 456 nM
CCCCOc1nc(N)c2[nH]c(=O)n(Cc3ccc(CN4CCC(CCNC(=O)[C@H](CCCCNC(=O)CON)NC(=O)CCCC(=O)NCCOCCOCCOCCOCCC(=O)NC(COCCC(=O)NCCOCCOCCOCCOC)(COCCC(=O)NCCOCCOCCOCCOC)COCCC(=O)NCCOCCOCCOCCOC)CC4)cc3)c2n1 [AXC-938, (S)-N1-(1-((2-(1-(4-((6-amino-2-butoxy-8-oxo-7,8-dihydro-9H-purin-9-yl)methyl)benzyl)piperidin-4-yl)ethyl)amino)-6-(2-(aminooxy)acetamido)-1-oxohexan-2-yl)-N5-mPEG4-(PEG4)3-glutaramide] | 644 nM
CCCCOc1nc(N)c2[nH]c(=O)n(Cc3ccc(CN4CCC(CCNC(=O)[C@H](CCCCNC(=O)CON)NC(=O)CCOCCOCCOCCOCCOCCOCCOCCOCCOCCOCCOCCOC)CC4)cc3)c2n1 [AXC-940, (S)—N-(2-(1-(4-((6-amino-2-butoxy-8-oxo-7,8-dihydro-9H-purin-9-yl)methyl)benzyl)piperidin-4-yl)ethyl)-6-(2-(aminooxy)acetamido)-2-PEG12-amidohexanamide] | 644 nM
CCCCOc1nc(N)c2[nH]c(=O)n(Cc3ccc(CN4CCC(CCNC(=O)[C@H](CCCCNC(=O)CON)NC(=O)CCOCCOCCOCCOCCOCCOCCOCCOCCOCCOCCOCCOCCOCCOCCOCCOCCOCCOCCOCCOCCOCCOCCOCCOCCOCCOCCOCCOCCOCCOCCOCCOCCOCCOCCOCCOCCOC)CC4)cc3)c2n1 [AXC-941, (S)—N-(2-(1-(4-((6-amino-2-butoxy-8-oxo-7,8-dihydro-9H-purin-9-yl)methyl)benzyl)piperidin-4-yl)ethyl)-6-(2-(aminooxy)acetamido)-2-PEG37-amidohexanamide] | 699 nM
CCCCOc1nc(N)c2[nH]c(=O)n(Cc3ccc(CN4CCC(CCNC(=O)[C@H](CCCCNC(=O)CON)NC(=O)CCCc5ccccc5)CC4)cc3)c2n1 [AXC-942, (S)—N-(2-(1-(4-((6-amino-2-butoxy-8-oxo-7,8-dihydro-9H-purin-9-yl)methyl)benzyl)piperidin-4-yl)ethyl)-6-(2-(aminooxy)acetamido)-2-(4-phenylbutanamido)hexanamide] | 387 nM
CCCCOc1nc(N)c2[nH]c(=O)n(Cc3ccc(CN4CCC(CCNC(=O)[C@H](CCCCNC(=O)CON)NC(=O)CCCC(=O)NCCOCCOCCOCCOCCC(=O)NC(COCCC(=O)NCCOCCOCCOCCOCCOCCOCCOCCOC)(COCCC(=O)NCCOCCOCCOCCOCCOCCOCCOCCOC)COCCC(=O)NCCOCCOCCOCCOCCOCCOCCOCCOC)CC4)cc3)c2n1 [AXC-945, (S)—N-(2-(1-(4-((6-amino-2-butoxy-8-oxo-7,8-dihydro-9H-purin-9-yl)methyl)benzyl)piperidin-4-yl)ethyl)-6-(2-(aminooxy)acetamido)-2-dPEG4-(m-dPEG8)3-amidohexanamide] | 232 nM
CCCCOc1nc(N)c2[nH]c(=O)n(Cc3ccc(CN4CCC(CCNC(=O)[C@H](CCCCNC(=O)CON)NC(=O)CCCC(=O)NCCOCCOCCOCCOCCC(=O)NC(COCCC(=O)NCCOCCOCCOCCOCCOCCOCCOCCOCCOCCOCCOCCOC)(COCCC(=O)NCCOCCOCCOCCOCCOCCOCCOCCOCCOCCOCCOCCOC)COCCC(=O)NCCOCCOCCOCCOCCOCCOCCOCCOCCOCCOCCOCCOC)CC4)cc3)c2n1 [AXC-946, (S)—N-(2-(1-(4-((6-amino-2-butoxy-8-oxo-7,8-dihydro-9H-purin-9-yl)methyl)benzyl)piperidin-4-yl)ethyl)-6-(2-(aminooxy)acetamido)-2-dPEG4-(m-dPEG12)3-amidohexanamide] | 1410 nM
CCCCOc1nc(N)c2[nH]c(=O)n(Cc3ccc(CN4CCC(CCNC(=O)[C@H](CCCCN)NC(=O)CON)CC4)cc3)c2n1 [AXC-947, (S)-6-amino-N-(2-(1-(4-((6-amino-2-butoxy-8-oxo-7,8-dihydro-9H-purin-9-yl)methyl)benzyl)piperidin-4-yl)ethyl)-2-(2-(aminooxy)acetamido)hexanamide] | 337 nM
CCCCOc1nc(N)c2[nH]c(=O)n(Cc3ccc(CN4CCC(CCNC(=O)[C@H](CCCCNC(=O)CCOCCOCCOCCOCCOCCOCCOCCOCCOCCOCCOCCOCCOCCOCCOCCOCCOCCOCCOCCOCCOCCOCCOCCOC)NC(=O)CON)CC4)cc3)c2n1 [AXC-949, (S)—N-(2-(1-(4-((6-amino-2-butoxy-8-oxo-7,8-dihydro-9H-purin-9-yl)methyl)benzyl)piperidin-4-yl)ethyl)-2-(2-(aminooxy)acetamido)-6-PEG24-amidohexanamide] | 760 nM
CCCCOc1nc(N)c2[nH]c(=O)n(Cc3ccc(CN4CCC(CCNC(=O)[C@H](CCCCNC(=O)CCOCCOCCOCCOCCOCCOCCOCCOC)NC(=O)CON)CC4)cc3)c2n1 [AXC-950, (S)—N-(2-(1-(4-((6-amino-2-butoxy-8-oxo-7,8-dihydro-9H-purin-9-yl)methyl)benzyl)piperidin-4-yl)ethyl)-2-(2-(aminooxy)acetamido)-6-PEG8-amidohexanamide] | 443 nM
CCCCOc1nc(N)c2[nH]c(=O)n(Cc3ccc(CN4CCC(CCNC(=O)[C@H](CCCCNC(=O)CCOCCOCCOCCOCCOCCOCCOCCOCCOCCOCCOCCOCCOCCOCCOCCOCCOCCOCCOCCOCCOCCOCCOCCOCCOCCOCCOCCOCCOCCOCCOCCOCCOCCOCCOCCOCCOC)NC(=O)CON)CC4)cc3)c2n1 [AXC-951, (S)—N-(2-(1-(4-((6-amino-2-butoxy-8-oxo-7,8-dihydro-9H-purin-9-yl)methyl)benzyl)piperidin-4-yl)ethyl)-2-(2-(aminooxy)acetamido)-6-(PEG37)hexanamide] | 842 nM
CCCCOc1nc(N)c2[nH]c(=O)n(Cc3ccc(CN4CCC(CCNC(=O)[C@H](CCCCNC(=O)CCCC(=O)NCCOCCOCCOCCOCCC(=O)NC(COCCC(=O)NCCOCCOCCOCCOCCOCCOCCOCCOC)(COCCC(=O)NCCOCCOCCOCCOCCOCCOCCOCCOC)COCCC(=O)NCCOCCOCCOCCOCCOCCOCCOCCOC)NC(=O)CON)CC4)cc3)c2n1 [AXC-952, (S)—N-(2-(1-(4-((6-amino-2-butoxy-8-oxo-7,8-dihydro-9H-purin-9-yl)methyl)benzyl)piperidin-4-yl)ethyl)-2-(2-(aminooxy)acetamido)-6-(dPEG4-(m-dPEG8)3)hexanamide] | 1020 nM
